# Assay: physchem
# Format: physicochemical
# Excerpt: The following results were obtained in our solubility study of aripiprazole monohydrate.
compound,measurement,setting,value
"O=C1CCc2ccc(OCCCCN3CCN(c4cccc(Cl)c4Cl)CC3)cc2N1 [aripiprazole monohydrate, 7-[4-[4-(2,3-dichlorophenyl)-1-piperazinyl]butoxy]-3,4-dihydrocarbostyril]",dissolved,pH 1.2 (0.1 N NCl),25 mg per 250 mL
same,dissolved,pH 1.2 (USP buffer),9.75 mg per 250 mL
same,Cmax (mg/250 mL) (Aripiprazole),pH 4.5,8.25 mg/250 mL
same,dissolved,pH 4.5,8.25 mg per 250 mL
same,solubility,"pH 4.5, aqueous buffer, Maximum Solubility (Cmax mg/mL)",33 µg/mL
same,Cmax (mg/250 mL) (Aripiprazole),pH 6.8,0 mg/250 mL
same,Maximum Solubility (Cmax mg/mL),pH 6.8,0 mg/mL
same,dissolved,pH 6.8,not dissolved
